The values below come from patent US20040038226A1, “Transgenic animal model by mineralocorticoid receptor antisense expression” (priority 2000, published 2004).

This data set has as its target T1, mMR (Mus musculus, UniProt Q8VII8).
T1 construct: the level of expression of the endogenous mMR observed in the control males; endogenous in cells; host or cells: whole mice in vivo: double transgenic alphaMHC-tTA/MR animals, with cardiac mMR mRNA lowered by about 50% by the antisense, and wild or single transgenic controls
T1 sequence (Q8VII8 1-978): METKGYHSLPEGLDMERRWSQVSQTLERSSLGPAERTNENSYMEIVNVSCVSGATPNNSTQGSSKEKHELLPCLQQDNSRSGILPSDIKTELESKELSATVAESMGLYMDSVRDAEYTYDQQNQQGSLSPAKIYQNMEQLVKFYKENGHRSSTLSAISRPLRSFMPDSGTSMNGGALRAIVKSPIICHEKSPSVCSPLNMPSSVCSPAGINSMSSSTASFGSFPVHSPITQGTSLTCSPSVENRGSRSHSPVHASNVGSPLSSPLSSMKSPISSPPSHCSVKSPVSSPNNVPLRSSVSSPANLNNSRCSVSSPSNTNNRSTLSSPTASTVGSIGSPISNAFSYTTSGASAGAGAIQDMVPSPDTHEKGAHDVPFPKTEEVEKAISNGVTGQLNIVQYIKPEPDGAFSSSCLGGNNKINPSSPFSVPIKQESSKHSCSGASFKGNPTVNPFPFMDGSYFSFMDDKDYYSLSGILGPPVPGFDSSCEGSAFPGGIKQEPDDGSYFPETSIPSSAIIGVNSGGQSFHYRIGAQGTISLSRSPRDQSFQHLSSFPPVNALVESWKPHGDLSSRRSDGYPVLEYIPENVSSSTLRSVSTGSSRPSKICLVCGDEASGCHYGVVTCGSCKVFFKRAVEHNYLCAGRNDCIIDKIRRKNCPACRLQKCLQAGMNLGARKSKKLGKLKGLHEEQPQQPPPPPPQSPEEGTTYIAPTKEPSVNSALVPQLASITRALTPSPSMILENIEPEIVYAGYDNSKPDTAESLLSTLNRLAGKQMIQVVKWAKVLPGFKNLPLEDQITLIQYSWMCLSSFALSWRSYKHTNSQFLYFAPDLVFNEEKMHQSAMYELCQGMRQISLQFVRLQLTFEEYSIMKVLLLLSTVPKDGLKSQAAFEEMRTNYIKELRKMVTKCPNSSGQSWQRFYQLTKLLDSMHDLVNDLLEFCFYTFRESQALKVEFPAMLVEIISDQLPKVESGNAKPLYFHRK
Nature of the data set: Administration of spironolactone to control animals (wild or single transgenic). The class given is in vivo, mice. To be noted: 30 mg/kg/day.

Each structure is given as a SMILES string.

For `CC(=O)S[C@@H]1CC2=CC(=O)CC[C@]2(C)[C@H]2CC[C@@]3(C)[C@@H](CC[C@@]34CCC(=O)O4)[C@H]12` [spironolactone], the “functional or structural alteration of the heart” value was “does not produce any functional or structural alteration”.
